The text below walks through data of US9416103B2, “Use of the aminoalkylindole JWH-073-M4 and related compounds as neutral CB1 receptor antagonists for the treatment of alcoholism, drug abuse, obesity, and obesity-related diseases” (The Board of Trustees of the University of Arkansas, priority 2012, dated 2016).

One may read the Ki as a measure of affinity in units of concentration, obtained from inhibition or displacement.

One test has as its system NIH Swiss mice. The test is described as follows: Core body temperature by biotelemetry (cannabinoid tetrad, hypothermia). It is filed as in vivo, mouse. As for the experimental part: Prior to surgery (see below), male NIH Swiss mice (Harlan Sprague Dawley Inc., Indianapolis, Ind.), weighing approximately 25-30 g, were housed 3 animals per Plexiglas® cage (15.24×25.40×12.70 cm) in a temperature-controlled room in an Association for Assessment and Accreditation of Laboratory Animal Care (AAALAC) accredited animal facility at the University of Arkansas for Medical Sciences. Room conditions were maintained at 22±2° C. and 45-50% humidity. Lights were set to a 12-h light/dark cycle. Animals were fed Lab Diet rodent chow (Laboratory Rodent Diet #5001, PMI Feeds, Inc., St. Louis, Mo.) and water ad libitum throughout testing Animals were acclimated to the laboratory environment for ˜7 days prior to experiments, and to the biotelemetry chambers for at least 2 hours prior to initiation of data acquisition. All test conditions used groups of 5 or 6 mice, and all mice were drug-naïve (with the exception of surgical anesthetics) prior to testing.
Cannabinoid effects on core temperature and locomotor activity were measured using surgically-implanted biotelemetry probes. Following appropriate anesthetization with ketamine (100 mg/kg, intraperitoneal [i.p.]) and xylazine (10 mg/kg, i.p.), the abdominal area of each mouse was shaved and sanitized with iodine swabs. A rostral-caudal cut approximately 1.5 cm in length was made with skin scissors, providing access to the intraperitoneal cavity. A cylindrical glass-encapsulated radiotelemetry probe (model ER-4000 E-Mitter, Mini Mitter Co., Inc., Bend, Oreg.) was then inserted, and the incision was closed using absorbable 5-0 chromic gut suture material. At least 7 days were imposed between surgery and experimental observation of cannabinoid effects to allow incisions to heal and mice to recover normal body weights. Following surgery, implanted mice were individually housed in Plexiglas® mouse cages (15.24×25.40×12.70 cm) for the duration of all temperature and locomotor activity experiments Implanted transmitters produced activity- and temperature-modulated signals that were transmitted to a receiver (model ER-4000 Receiver, Mini Mitter Co., Inc., Bend, Oreg.) underneath each mouse cage. Receivers were housed in light- and sound-attenuating cubicles (Med Associates model ENV-022MD, St. Albans, Vt.) equipped with exhaust fans, which further masked ambient laboratory noise. On experimental days, mice were weighed, marked, and returned to their individual cages during which at least 1 hr of baseline data were collected. […]. Mice were then placed into a new cage with fresh bedding to stimulate exploratory behavior. Temperature and locomotor activity data were collected at regular 5-min intervals and processed simultaneously by the Vital View data acquisition system (Mini Mitter Co., Inc., Bend, Oreg.) for at least 10 hrs.
For core body temperature experiments, the area under the curve (AUC) was calculated using a trapezoidal rule from 0-500 minutes, and statistical significance (P<0.05) was determined using a one-way ANOVA, followed by Tukey's HSD post-hoc test. For locomotor activity, total locomotor counts were summed from 0-800 minutes. Because locomotor, analgesia and catalepsy data were not normally distributed, Kruskal-Wallis one-way ANOVA on ranks were performed, and all pair-wise comparisons were then made using the Tukey's HSD tests. In vivo statistical calculations were performed using SigmaStat 3 (Systat Software, Inc., San Jose, Calif.).

For another test, the target named is hCB2Rs (Homo sapiens (Human), UniProt P34972). In words: Competition receptor binding with [3H]CP-55,940 in CHO-hCB2 cell homogenates. As to the method:
Competition receptor binding was performed as previously described. […] Reactions were terminated by rapid vacuum filtration through Whatman GF/B glass fiber filters, followed by five washes with ice-cold buffer (50 mM Tris, 0.05% BSA). Filters were immediately placed into 7 mL scintillation vials to which 4 mL of ScintiVerse™ BD Cocktail scintillation fluid (Fisher Scientific, Fair Lawn, N.J.) was added. Bound radioactivity was determined after overnight incubation at room temperature and shaking, by liquid scintillation spectrophotometry with an efficiency of 44% (Tri Carb 2100 TR Liquid Scintillation Analyzer, Packard Instrument Company, Meriden, Conn.). Specific binding is expressed as total binding minus non-specific binding, and is graphed for each data point as a percentage of specific binding occurring in the absence of any competitor.
The prepared analogues were subjected to in vitro pharmacological testing, which included receptor binding and functional assays at both cannabinoid receptors. Initial receptor binding screens at both CB1Rs and CB2Rs were conducted for the analogues prepared.

Setting [1] is: CHO-hCB2 homogenates (100 μg), read-out: affinity (Ki) at hCB2Rs.

Each structure is given as a SMILES string. Read-outs that look alike come from different tables or passages of the source.

Consider `CCCCn1cc(C(=O)c2cccc3ccccc23)c2cccc(O)c21` [Compound M4], for which the “JWH-018-induced hypothermia blunted by co-administration, core body temperature” value in the test on NIH Swiss mice (M4 10 mg/kg i.p. co-administered with JWH-018 3 mg/kg i.p.) is 33.09+/−0.70 °C. In addition, the “change in body temperature, given alone” value in the test on NIH Swiss mice (M4 10 mg/kg, i.p., alone) is “no significant change in body temperature”. Further, the Ki is about 250 nM at hCB2Rs (CHO-hCB2 homogenates (100 μg), listed as JWH-073-M4, read-out: affinity (Ki) at hCB2Rs); 251 ± 91.1 nM at hCB2Rs (setting [1]); 78.3 ± 36.2 nM at hCB2Rs (Table 3, read-out: hCB2R Ki).
In the case of `CCCCn1cc(C(=O)c2cccc3ccccc23)c2ccccc21` [JWH-073, (1-butyl-1H-indole-3-yl)-1-naphthalenyl-methanone], in the test with NIH Swiss mice (10 mg/kg, i.p.), the “minimum core body temperature recorded” value is 29.74±1.44 °C and the “time to maximal core body temperature reduction” value turned out to be 54.17 ± 5.23 min. The Ki at hCB2Rs (setting [1]) stood at 9.84 ± 0.92 nM. At hCB2Rs (Table 3, read-out: hCB2R Ki), the Ki was determined as 9.8 ± 0.9 nM.
